# Experimental data taken from PubChem BioAssay (NCI).
# Several values for one entry are separate records, joined by “and”; a condition that tells them apart may be missing. Equal values may be shown once.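 Tested at 5 concentrations; 48 h exposure; 96-well plates; endpoints linearly interpolated, else capped at highest concentration. Here, GI50 denotes the concentration required for 50% inhibition of growth. Definition used: TGI = concentration required for complete inhibition of growth.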
# Experiments:
# Assay in all cases: growth of human tumour cells (NCI), 48 h
# [1] = tested on: HCC-2998 colon
# [2] = tested on: NCI/ADR-RES ovarian
# [3] = tested on: UO-31 renal
# [4] = tested on: A498 renal
# [5] = tested on: UACC-257 melanoma
# [6] = tested on: SF-539 CNS
# [7] = tested on: KM12 colon
# [8] = tested on: SF-295 CNS
# [9] = tested on: SK-MEL-5 melanoma
# [10] = tested on: SNB-19 CNS
Compound,GI50 [1],TGI [1],GI50 [2],TGI [2],GI50 [3],TGI [3],GI50 [4] [µM],TGI [4],GI50 [5],TGI [5],GI50 [6],TGI [6],GI50 [7],TGI [7],GI50 [8],TGI [8],GI50 [9],TGI [9],GI50 [10],TGI [10]
CC(=O)Nc1ccc2c(c1)CN1C(=O)c3ccccc3C1=N2,> 100 µM,> 100 µM,> 100 µM,> 100 µM,> 100 µM,> 100 µM,> 100,> 100 µM,> 100 µM,> 100 µM,> 100 µM,> 100 µM,> 100 µM,> 100 µM,> 100 µM,> 100 µM,> 100 µM,> 100 µM,> 100 µM,> 100 µM
Oc1cccc(-c2nc(N3CCOCC3)c3oc4ncccc4c3n2)c1,1.85 µM and 0.401 µM,8.87 µM and > 33.9 µM,0.147 µM and 0.225 µM,,0.0354 µM and 0.0315 µM,0.571 µM and 0.449 µM,1.96,9.35 µM and 3.98 µM,0.593 µM and 0.421 µM,3.39 µM and 3.79 µM,0.137 µM and 0.131 µM,0.594 µM and 0.635 µM,0.286 µM and 0.297 µM,> 100 µM,1.21 µM and 1.62 µM,4.08 µM and 4.6 µM,0.263 µM and 0.346 µM,1.2 µM and 2.44 µM,0.358 µM and 0.247 µM,7.43 µM and 6.83 µM
N=C(N)SCC(=O)O,,> 100 µM,,> 100 µM,,> 100 µM,,> 100 µM,,> 100 µM,,> 100 µM,,> 100 µM,,> 100 µM,,> 100 µM,,> 100 µM
O=C(Nc1nc2ccc(F)cc2s1)c1cccnc1Nc1ccc(Cl)cc1Cl,4.09 µM,18.3 µM,2.59 µM,10.5 µM,2.21 µM,> 24.4 µM,2.13,6.84 µM,0.753 µM,7.73 µM,4.15 µM,15.3 µM,2.78 µM,9.54 µM,1.93 µM,8.02 µM,1.87 µM,6.11 µM,3.22 µM,14.7 µM
COc1ccc2c(c1)c(-c1cc(-c3cn(C)c4ccc(OC)cc34)[nH]n1)cn2C,> 100 µM,> 100 µM,> 100 µM,> 100 µM,> 100 µM,> 100 µM,> 100,> 100 µM,> 100 µM,> 100 µM,> 100 µM,> 100 µM,> 100 µM,> 100 µM,> 100 µM,> 100 µM,> 100 µM,> 100 µM,> 100 µM,> 100 µM
CC(=O)OC1Oc2cc(C)c(C)cc2-c2oc(=O)c(-c3ccccc3)cc21 (configuration not stated),0.971 µM,> 30.8 µM,0.213 µM,0.908 µM,0.499 µM,35.9 µM,0.271,3.11 µM,0.537 µM,39 µM,0.232 µM,0.762 µM,0.307 µM,11.8 µM,0.448 µM,> 34.9 µM,0.231 µM,4.06 µM,0.496 µM,28.7 µM
COc1ccccc1-c1nccc(COc2ccccc2C[C@@H](Oc2ncnc3sc(-c4ccc(F)cc4)c(-c4ccc(OCCN5CCN(C)CC5)c(Cl)c4C)c23)C(=O)O)n1,1.31 µM,2.78 µM,18.2 µM,> 100 µM,6.12 µM,17.5 µM,,0.522 µM,3.01 µM,11.2 µM,1.21 µM,2.59 µM,3.33 µM,12.1 µM,1.89 µM,3.91 µM,1.71 µM,3.12 µM,2.05 µM,4.58 µM
O=C1c2c(O)ccc(O)c2C(=O)c2c(NCCNCCO)ccc(NCCNCCO)c21,,1.04 µM and 0.795 µM and 0.908 µM,1.41 µM and 1.64 µM and 3.86 µM,> 100 µM and 50 µM and 23.9 µM,,0.835 µM and 0.668 µM and 2.55 µM,0.0721,0.555 µM and 0.588 µM and 0.59 µM,0.82 µM,4.61 µM and 6.14 µM and 7.32 µM,,0.0705 µM and 0.699 µM and 0.244 µM,0.459 µM,2.58 µM and 2.59 µM and 3.9 µM,,0.321 µM and 0.878 µM and 0.526 µM,,0.689 µM and 0.329 µM and 0.657 µM,,0.546 µM and 2.08 µM and 0.79 µM
CCOc1cccc(/C=N/NC(=O)Cc2ccc(Nc3ccnc(C(F)(F)F)c3)cc2)c1O,6.78 µM,93.4 µM,4.23 µM,> 100 µM,0.986 µM,20.7 µM,4.62,67 µM,6.84 µM,> 100 µM,2.03 µM,14.5 µM,3.73 µM,84.3 µM,3.81 µM,43.2 µM,1.67 µM,5.99 µM,2.54 µM,> 100 µM
COc1ccc(CNC(=O)c2ccc(-c3cc(-c4nnc(C)o4)ccc3C)cc2)cc1,> 25 µM,> 25 µM,16.1 µM,> 25 µM,6.03 µM,> 25 µM,8.22,> 25 µM,12.8 µM,> 25 µM,> 25 µM,> 25 µM,> 25 µM,> 25 µM,7.6 µM,> 25 µM,6.17 µM,> 19.9 µM,> 22.8 µM,> 25 µM
O=C1Nc2ccc(Br)cc2C1=Nc1ccc(Cl)cc1,,39.7 µM,,62.3 µM,,28.9 µM,,> 100 µM,,79.1 µM,,19.4 µM,,24.8 µM,,89.2 µM,,20.1 µM,,97 µM
